From ChEMBL document CHEMBL2434848, “Synthesis and biological evaluation of novel alkyl amide functionalized trifluoromethyl substituted pyrazolo[3,4-b]pyridine derivatives as potential anticancer agents” (Bioorg Med Chem Lett, 2013)

Legend:
Type in all cases: functional, cell-based
[1] = test system: HeLa; experiment: Cytotoxicity against human HeLa cells after 24 hrs by MTT assay
[2] = test system: DU-145; experiment: Cytotoxicity against human DU145 cells after 24 hrs by MTT assay
[3] = test system: MCF7; experiment: Cytotoxicity against human MCF7 cells after 24 hrs by MTT assay
[4] = test system: A549; experiment: Cytotoxicity against human A549 cells after 24 hrs by MTT assay
[5] = Homo sapiens, HeLa, 24 h, read-out: IC50
[6] = Homo sapiens, DU-145, 24 h, read-out: IC50
[7] = Homo sapiens, MCF7, 24 h, read-out: IC50
[8] = Homo sapiens, A549, 24 h, read-out: IC50

Row | Structure (SMILES) | IC50 ([1]; hela) | IC50 ([2]; du-145) | IC50 ([3]; mcf7) | IC50 ([4]; a549) | IC50 [1, 5] [µM] | IC50 [2, 6] [µM] | IC50 [3, 7] [µM] | IC50 [4, 8] [µM]
1 | Nc1nn(CC(=O)NC2CC2)c2nc(-c3ccccc3)cc(C(F)(F)F)c12 | Not Active | Not Active | Not Active | Not Active |  |  |  | 
2 | CCCNC(=O)Cn1nc(N)c2c(C(F)(F)F)cc(-c3ccccc3)nc21 |  |  |  |  | 15.9 | 15.5 | 14.9 | 16.5
3 | NNC(=O)Cn1nc(N)c2c(C(F)(F)F)cc(-c3ccccc3)nc21 |  |  |  |  | 48.4 | 52.4 | 35.4 | 53.6
4 | NCCNC(=O)Cn1nc(N)c2c(C(F)(F)F)cc(-c3ccccc3)nc21 |  |  |  |  | 44.5 | 38.9 | 42.9 | 50.2
5 | Nc1nn(CC(=O)NCCO)c2nc(-c3ccccc3)cc(C(F)(F)F)c12 |  |  |  |  | 69.5 | 96.3 | 78.2 | 128
6 | Nc1nn(CC(=O)NCc2ccco2)c2nc(-c3ccccc3)cc(C(F)(F)F)c12 |  |  |  |  | 7.1 | 5.6 | 5 | 7.7
7 | Nc1nn(CC(=O)NC2CCCCC2)c2nc(-c3ccccc3)cc(C(F)(F)F)c12 |  |  |  |  | 3.9 | 3.1 | 5.2 | 2.3
8 | Nc1nn(CC(=O)NCc2ccccc2)c2nc(-c3ccccc3)cc(C(F)(F)F)c12 |  |  |  |  | 17.1 | 15.6 | 16.3 | 17.3
9 | Nc1nn(CC(=O)N2CCOCC2)c2nc(-c3ccccc3)cc(C(F)(F)F)c12 |  |  |  |  | 6.6 | 5.1 | 5.9 | 5.4
10 | CN1CCN(C(=O)Cn2nc(N)c3c(C(F)(F)F)cc(-c4ccccc4)nc32)CC1 |  |  |  |  | 17.7 | 18.1 | 16.6 | 18.4
11 | Nc1nn(CC(=O)N2CCN(CCO)CC2)c2nc(-c3ccccc3)cc(C(F)(F)F)c12 |  |  |  |  | 2.9 | 3.2 | 15.6 | 14.9
12 | Nc1nn(CC(=O)N2CCN(c3ccccc3)CC2)c2nc(-c3ccccc3)cc(C(F)(F)F)c12 |  |  |  |  | 19.8 | 18.9 | 19.7 | 20.7
13 | Nc1nn(CC(=O)N2CCCCC2)c2nc(-c3ccccc3)cc(C(F)(F)F)c12 |  |  |  |  | 2.9 | 3.2 | 4.1 | 1.2
14 | Nc1nn(CC(=O)N2CCCC2)c2nc(-c3ccccc3)cc(C(F)(F)F)c12 |  |  |  |  | 16.1 | 12.2 | 15.9 | 18.7
15 | Nc1nn(CC(=O)NCC(=O)O)c2nc(-c3ccccc3)cc(C(F)(F)F)c12 |  |  |  |  | 19.1 | 18.8 | 21.2 | 19.9
16 | CC(NC(=O)Cn1nc(N)c2c(C(F)(F)F)cc(-c3ccccc3)nc21)C(=O)O (stereo not given) |  |  |  |  | 20.1 | 22.4 | 19.9 | 25.6
17 | Nc1nn(CC(=O)NC(Cc2ccccc2)C(=O)O)c2nc(-c3ccccc3)cc(C(F)(F)F)c12 (stereo not given) |  |  |  |  | 31.3 | 32.3 | 42.1 | 30.1
18 | CNC(=O)Cn1nc(N)c2c(C(F)(F)F)cc(-c3ccccc3)nc21 |  |  |  |  | 12.2 | 14.4 | 11.8 | 15.3
19 | CCNC(=O)Cn1nc(N)c2c(C(F)(F)F)cc(-c3ccccc3)nc21 |  |  |  |  | 20.2 | 17.9 | 21.3 | 18.8
20 | O=c1[nH]cc(F)c(=O)[nH]1 [FLUOROURACIL] |  |  |  |  | 1.1 | 1.3 | 1.2 | 1.1
